Earlier results as cited in US6680321B1, “Compounds with analgesic effect” (AstraZeneca Canada, Inc., priority 1995, dated 2004).

Columns and labels:
[1] = in vivo
μ receptor = μ receptor (Homo sapiens, UniProt P35372)
δ receptor = δ receptor (Homo sapiens, UniProt P41143)
Chain of δ receptor (P41143 whole entry): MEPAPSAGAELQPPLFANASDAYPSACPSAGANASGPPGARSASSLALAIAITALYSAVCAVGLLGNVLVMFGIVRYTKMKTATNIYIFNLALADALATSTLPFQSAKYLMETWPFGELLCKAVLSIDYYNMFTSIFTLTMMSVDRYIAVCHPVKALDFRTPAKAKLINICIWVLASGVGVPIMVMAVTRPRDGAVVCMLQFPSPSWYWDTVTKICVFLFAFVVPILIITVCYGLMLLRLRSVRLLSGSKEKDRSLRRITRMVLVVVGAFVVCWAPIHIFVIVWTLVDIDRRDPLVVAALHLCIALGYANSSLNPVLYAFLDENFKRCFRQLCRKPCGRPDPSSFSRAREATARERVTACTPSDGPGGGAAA

Chain of μ receptor (P35372 whole entry): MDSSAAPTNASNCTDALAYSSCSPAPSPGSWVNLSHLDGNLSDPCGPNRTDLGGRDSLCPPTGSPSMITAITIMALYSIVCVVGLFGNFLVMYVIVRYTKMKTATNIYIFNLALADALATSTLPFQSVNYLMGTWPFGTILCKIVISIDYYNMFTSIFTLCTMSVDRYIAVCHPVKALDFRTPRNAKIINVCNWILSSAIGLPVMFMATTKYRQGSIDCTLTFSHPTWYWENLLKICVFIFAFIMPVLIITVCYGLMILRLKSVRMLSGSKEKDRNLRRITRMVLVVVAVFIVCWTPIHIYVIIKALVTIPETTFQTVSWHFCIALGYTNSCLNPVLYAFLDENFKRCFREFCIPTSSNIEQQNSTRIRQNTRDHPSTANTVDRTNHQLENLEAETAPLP

SMILES	analgesic activity [1]	affinity for the μ receptor (μ receptor)	selectivity for the δ receptor vs μ′ receptor binding (δ receptor)
C=CCN1C[C@H](C)N([C@H](c2ccc(C(=O)N(CC)CC)cc2)c2cccc(O)c2)C[C@H]1C [BW 373U86]	with analgesic activity	significant affinity	–
Oc1ccc2c3c1O[C@H]1c4[nH]c5ccccc5c4C[C@@]4(O)[C@@H](C2)N(CC2CC2)CC[C@]314 [naltrindole]	no analgesic activity	–	< 10 fold
